For orientation: IC50 means the concentration that inhibits the measured activity by half.

SMILES strings stand for the structures.

The target in the test is T1, BTK (Homo sapiens, UniProt Q06187).
T1 construct: purified from insect cells as a full-length construct containing a N-terminal 6×-His tag; His6 (N); made in house; host or cells: insect cells (baculovirus, Sf21)
T1 sequence (Q06187 whole entry): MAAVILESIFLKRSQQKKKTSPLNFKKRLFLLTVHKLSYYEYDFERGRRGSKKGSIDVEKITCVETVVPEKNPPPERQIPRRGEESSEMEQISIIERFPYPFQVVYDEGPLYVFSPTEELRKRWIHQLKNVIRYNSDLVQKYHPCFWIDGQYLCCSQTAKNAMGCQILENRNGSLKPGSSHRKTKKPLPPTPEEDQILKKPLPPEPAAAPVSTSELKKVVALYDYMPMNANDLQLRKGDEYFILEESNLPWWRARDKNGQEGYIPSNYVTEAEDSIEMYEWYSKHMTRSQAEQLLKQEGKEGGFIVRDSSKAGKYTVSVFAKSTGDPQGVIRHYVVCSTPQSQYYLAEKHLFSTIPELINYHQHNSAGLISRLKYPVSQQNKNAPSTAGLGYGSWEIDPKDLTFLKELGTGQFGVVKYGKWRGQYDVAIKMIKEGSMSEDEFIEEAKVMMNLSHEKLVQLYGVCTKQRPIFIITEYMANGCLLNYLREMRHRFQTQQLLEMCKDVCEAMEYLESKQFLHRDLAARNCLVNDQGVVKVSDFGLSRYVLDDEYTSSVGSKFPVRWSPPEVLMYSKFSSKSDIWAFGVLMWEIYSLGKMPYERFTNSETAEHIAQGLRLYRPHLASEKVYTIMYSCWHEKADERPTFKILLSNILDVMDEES
Briefly: Btk in vitro inhibitory activity / inhibition of a panel of kinases (TR-FRET, mobility shift or radiometric filter binding). It counts as biochemical. The conditions noted are these: kinase assay by one of methods A, B or C. The method, then: Btk kinase activity is determined using a time-resolved fluorescence resonance energy transfer (TR-FRET) methodology. Measurements are performed in a reaction volume of 50 μL using 96-well assay plates. Kinase enzyme, inhibitor, ATP (at the Km for the kinase), and 1 μM peptide substrate (Biotin-AVLESEEELYSSARQ-NH2) are incubated in a reaction buffer composed of 20 mM Tris, 50 mM NaCl, MgCl2 (5-25 mM depending on the kinase), MnCl2 (0-10 mM), 1 mM DTT, 0.1 mM EDTA, 0.01% bovine serum albumin, 0.005% Tween-20, and 10% DMSO at pH 7.4 for one hour. The reaction is quenched by the addition of 1.2 equivalents of EDTA (relative to divalent cation) in 25 μL of 1× Lance buffer (Perkin-Elmer). Streptavidin-APC (Perkin-Elmer) and Eu-labeled p-Tyr100 antibody (Perkin-Elmer) in 1× Lance buffer are added in a 25 μL volume to give final concentrations of 100 nM and 2.5 nM, respectively, and the mixture is allowed to incubate for one hour. The TR-FRET signal is measured on a multimode plate reader with an excitation wavelength (λEx) of 330 nm and detection wavelengths (λEm) of 615 and 665 nm. Activity is determined by the ratio of the fluorescence at 665 nm to that at 615 nm. For each compound, enzyme activity is measured at various concentrations of compound. Negative control reactions are performed in the absence of inhibitor in replicates of six, and two no-enzyme controls are used to determine baseline fluorescence levels. Inhibition constants, Ki(app), ware obtained using the program BatchKi (Kuzmic et al. (2000), Anal. Biochem. 286:45-50). IC50s are obtained according to the equation: IC50={Ki(app)/(1+[ATP]/Km^ATP)}+[E]total/2;
For all kinases, [ATP]=Km^ATP, [Btk]total=0.5 nM and [Lck]total=6 nM.
Kinase activity is measured in vitro using electrophoretic mobility shift assay. The kinase reactions are assembled in a total volume of 25 μL in 384 well plates. The reactions comprise: BTK enzyme (1 nM, N-terminal His6-tagged, recombinant, full-length, human BTK purified from baculovirus Sf21 insect cell system), inhibitor, ATP ([…] the apparent Km for the kinase), fluorescently labeled peptide substrate (1 μM, FAM-GEEPLYWSFPAKKK-NH2) in a reaction buffer composed of 100 mM HEPES, pH7.5, 5 mM MgCl2 1 mM DTT, 0.1% bovine serum albumin, 0.01% Triton X-100, and 1% DMSO. The reaction is incubated for one hour and is quenched by the addition of 45 μL of termination buffer (100 mM HEPES, pH7.5, 0.01% Triton X-100, 30 mM EDTA). The terminated reactions are analyzed using 12 channel LabChip® 3000 microfluidic detection instrument (Caliper Life Sciences). The enzymatic phosphorylation of the peptide results in a change in net charge, enabling electrophoretic separation of product from substrate peptide. As substrate and product peptides are separated, two peaks of fluorescence are observed. Change in the relative fluorescence intensity of the substrate and product peaks is the parameter measured, reflecting enzyme activity. In the presence of an inhibitor, the ratio between product and substrate is altered: the signal of the product decreases, while the signal of the substrate increases.
Activity in each sample is determined as the product to sum ratio (PSR):P/(S+P), where P is the peak height of the product peptide and S is the peak height of the substrate peptide. For each compound, enzyme activity is measured at various concentrations (12 concentrations of compound spaced by 3× dilution intervals). Negative control samples (0%-inhibition in the absence of inhibitor) and positive control samples (100%-inhibition, in the presence of 20 mM EDTA) are assembled in replicates of four and are used to calculate %-inhibition values for each inhibitor at each concentration. Percent inhibition (Pinh) is determined using following equation: […]
In general terms: TR-FRET usually uses a lanthanide donor and a delayed reading to cut background.
For `CN(C/C=C/C(=O)N1CC[C@@H](n2c(C3CC3)c(-c3ccc(Oc4ccccc4)cc3)c3c(N)ncnc32)C1)[C@@H]1CCOC1` [Compound 97, (E)-1-((R)-3-(4-amino-6-cyclopropyl-5-(4-phenoxyphenyl)-7H-pyrrolo[2,3-d]pyrimidin-7-yl)pyrrolidin-1-yl)-4-(methyl((R)-tetrahydrofuran-3-yl)amino)but-2-en-1-one], the concentration for half-maximal inhibition (IC50) is less than 100 nM.
As to `CN(C(=O)/C=C/CN(C)C1CC1)c1ccc(-n2c(Cl)c(-c3ccc(Cl)cc3)c3c(N)ncnc32)cc1` [Compound 31, (E)-N-(4-(4-amino-6-chloro-5-(4-chlorophenyl)-7H-pyrrolo[2,3-d]pyrimidin-7-yl)phenyl)-4-(cyclopropyl(methyl)amino)-N-methylbut-2-enamide], the IC50 was less than 100 nM.
In the case of `Cc1c(-c2ccc(Oc3ccccc3)cc2)c2c(N)ncnc2n1[C@@H]1CCCN(C(=O)/C=C/CN(C)C2CC2)C1` [Compound 72, (R,E)-1-(3-(4-amino-6-methyl-5-(4-phenoxyphenyl)-7H-pyrrolo[2,3-d]pyrimidin-7-yl)piperidin-1-yl)-4-(cyclopropyl(methyl)amino)but-2-en-1-one], the IC50 was less than 100 nM.
Regarding `COCCN(C)C/C=C/C(=O)N1CC[C@@H](n2c(C#N)c(-c3ccc(Oc4ccccc4)cc3)c3c(N)ncnc32)C1` [Compound 104, (R,E)-4-amino-7-(1-(4-((2-methoxyethyl)(methyl)amino)but-2-enoyl)pyrrolidin-3-yl)-5-(4-phenoxyphenyl)-7H-pyrrolo[2,3-d]pyrimidine-6-carbonitrile], the IC50 was less than 100 nM.
Regarding `Cc1c(-c2ccc(Oc3cccc(F)c3)cc2)c2c(N)ncnc2n1[C@@H]1CCN(C(=O)/C=C/CN(C)C2CC2)C1` [Compound 53, (R,E)-1-(3-(4-amino-5-(4-(3-fluorophenoxyl)phenyl)-6-methyl-7H-pyrrolo[2,3-d]pyrimidin-7-yl)pyrrolidin-1-yl)-4-(cyclopropyl(methyl)amino)but-2-en-1-one], the IC50 is less than 100 nM.
For the compound `C#Cc1c(-c2ccc(Oc3ccccc3)cc2)c2c(N)ncnc2n1[C@@H]1CCN(C(=O)/C=C/CN(C)C2CC2)C1` [Compound 112, (R,E)-1-(3-(4-amino-6-ethynyl-5-(4-phenoxyphenyl)-7H-pyrrolo[2,3-d]pyrimidin-7-yl)pyrrolidin-1-yl)-4-(cyclopropyl(methyl)amino)but-2-en-1-one], the IC50 was less than 100 nM.
With `CN(C/C=C/C(=O)N1CC[C@@H](n2c(C3CC3)c(-c3ccc(Oc4ccccc4)cc3)c3c(N)ncnc32)C1)C1CC1` [Compound 94, (R,E)-1-(3-(4-amino-6-cyclopropyl-5-(4-phenoxyphenyl)-7H-pyrrolo[2,3-d]pyrimidin-7-yl)pyrrolidin-1-yl)-4-(cyclopropyl(methyl)amino)but-2-en-1-one] the figure was less than 100 nM; with `CN(C/C=C/C(=O)N1CC[C@@H](n2c(C(F)F)c(-c3ccc(Oc4ccccc4)cc3)c3c(N)ncnc32)C1)C1CC1` [Compound 122, (R,E)-1-(3-(4-amino-6-(difluoromethyl)-5-(4-phenoxyphenyl)-7H-pyrrolo[2,3-d]pyrimidin-7-yl)pyrrolidin-1-yl)-4-(cyclopropyl(methyl)amino)but-2-en-1-one], less than 100 nM.
With `CN(C/C=C/C(=O)N1CC[C@@H](n2c(Cl)c(-c3ccc(Oc4ccccc4)cc3)c3c(N)ncnc32)C1)[C@H]1CCOC1` [Compound 56, (E)-1-((R)-3-(4-amino-6-chloro-5-(4-phenoxyphenyl)-7H-pyrrolo[2,3-d]pyrimidin-7-yl)pyrrolidin-1-yl)-4-(methyl((S)-tetrahydrofuran-3-yl)amino)but-2-en-1-one] the figure was less than 100 nM; with `COCCN(C)C/C=C/C(=O)N1CC[C@@H](n2c(Cl)c(-c3ccc(Oc4ccccc4)cc3)c3c(N)ncnc32)C1` [Compound 55, (R,E)-1-(3-(4-amino-6-chloro-5-(4-phenoxyphenyl)-7H-pyrrolo[2,3-d]pyrimidin-7-yl)pyrrolidin-1-yl)-4-((2-methoxyethyl)(methyl)amino)but-2-en-1-one], less than 100 nM; with `CN(C/C=C/C(=O)N1CC[C@@H](n2c(C#N)c(-c3ccc(Oc4ccccc4)cc3)c3c(N)ncnc32)C1)C1CC1` [Compound 103, (R,E)-4-amino-7-(1-(4-(cyclopropyl(methyl)amino)but-2-enoyl)pyrrolidin-3-yl)-5-(4-phenoxyphenyl)-7H-pyrrolo[2,3-d]pyrimidine-6-carbonitrile], less than 100 nM.
With `Cc1c(-c2ccc(Oc3ccccc3)cc2)c2c(N)ncnc2n1C1CCN(C(=O)/C=C/CN(C)C2CC2)CC1` [Compound 67, (E)-1-(4-(4-amino-6-methyl-5-(4-phenoxyphenyl)-7H-pyrrolo[2,3-d]pyrimidin-7-yl)piperidin-1-yl)-4-(cyclopropyl(methyl)amino)but-2-en-1-one] the figure was less than 100 nM; with `CN(C)C/C=C/C(=O)N1CC[C@@H](n2c(C#N)c(-c3ccc(Oc4ccccc4)cc3)c3c(N)ncnc32)C1` [Compound 102, (R,E)-4-amino-7-(1-(4-(dimethylamino)but-2-enoyl)pyrrolidin-3-yl)-5-(4-phenoxyphenyl)-7H-pyrrolo[2,3-d]pyrimidine-6-carbonitrile], less than 100 nM; with `CN(C/C=C/C(=O)N1CC[C@@H](n2c(Cl)c(-c3ccc(Oc4ccccc4)cc3)c3c(N)ncnc32)C1)[C@@H]1CCOC1` [Compound 57, (E)-1-((R)-3-(4-amino-6-chloro-5-(4-phenoxyphenyl)-7H-pyrrolo[2,3-d]pyrimidin-7-yl)pyrrolidin-1-yl)-4-(methyl((R)-tetrahydrofuran-3-yl)amino)but-2-en-1-one], less than 100 nM.
Turning to `CN(C/C=C/C(=O)N1CC[C@@H](n2c(C(=O)O)c(-c3ccc(Oc4ccccc4)cc3)c3c(N)ncnc32)C1)C1CC1` [Compound 128, (R,E)-4-amino-7-(1-(4-(cyclopropyl(methyl)amino)but-2-enoyl)pyrrolidin-3-yl)-5-(4-phenoxyphenyl)-7H-pyrrolo[2,3-d]pyrimidine-6-carboxylic acid], the IC50 was less than 100 nM.
For the compound `CN(C/C=C/C(=O)N1CC[C@@H](n2c(-c3ncco3)c(-c3ccc(Oc4ccccc4)cc3)c3c(N)ncnc32)C1)C1CC1` [Compound 124, (R,E)-1-(3-(4-amino-6-(oxazol-2-yl)-5-(4-phenoxyphenyl)-7H-pyrrolo[2,3-d]pyrimidin-7-yl)pyrrolidin-1-yl)-4-(cyclopropyl(methyl)amino)but-2-en-1-one], the IC50 was less than 100 nM.
With `Cc1c(-c2ccc(OCc3cnn[nH]3)cc2)c2c(N)ncnc2n1[C@@H]1CCN(C(=O)/C=C/CN(C)C2CC2)C1` [Compound 86, (R,E)-1-(3-(5-(4-((1H-1,2,3-triazol-5-yl)methoxy)phenyl)-4-amino-6-methyl-7H-pyrrolo[2,3-d]pyrimidin-7-yl)pyrrolidin-1-yl)-4-(cyclopropyl(methyl)amino)but-2-en-1-one] the figure was less than 100 nM; with `COc1c(-c2ccc(Oc3cccc(F)c3)cc2)c2c(N)ncnc2n1[C@@H]1CCN(C(=O)/C=C/CN(C)C2CC2)C1` [Compound 92, (R,E)-1-(3-(4-amino-5-(4-(3-fluorophenoxyl)phenyl)-6-methoxy-7H-pyrrolo[2,3-d]pyrimidin-7-yl)pyrrolidin-1-yl)-4-(cyclopropyl(methyl)amino)but-2-en-1-one], less than 100 nM.

For the origin of these results see patent US9540385B2, “Pyrrolopyrimidine compounds as kinase inhibitors” (Pharmacyclics LLC, priority 2012, dated 2017).
